Assay results from patent US4663456A, “2-(substituted piperazinylalkyl)β-carbolines useful in treatment of psychological disorders” (American Home Products Corporation, priority 1985, dated 1987).

Legend:
[1] = target: T1, limbic D-2 (Rattus norvegicus, UniProt P61169); assay: limbic D-2 binding (3H-spiroperidol, homogenized limbic brain tissue)
T1 construct: from tissue; host or cells: homogenized limbic brain tissue
Method: Binding in the presence of the test compound is expressed as a percent of specific binding (total binding less binding in the presence of 1 μM (+)butaclamol). An inhibition constant (Ki) is calculated for each test compound to catagorize its limbic D-2 binding potential. The larger the number, the less potential for dopamine receptor binding and attendant side effects from administration of the antipsychotic agent.

[2] = test system: conditioned avoidance responding in trained male CD rats; assay: conditioned avoidance lever response test (block of avoidance responding, i.p.); format: in vivo, male CD rats (Charles River); conditions: Rattus norvegicus, ip, from dose-effect regression line, read-out: AB50 (50% block in avoidance responding)
Excerpt: The antipsychotic properties of the compounds of this invention were established by standard pharmacologically accepted procedures involving conditioned avoidance studies in which trained male CD rats (Charles River), 400-450 gm body weight are exposed to a fifteen second warning tone (conditioned stimulus) continued for an additional fifteen seconds accompanied by electric shock. The rat can avoid the electric shock by depression of a response lever (lever-response). A response during the initial warning tone is considered an avoidance response. The avoidance response is determined and expressed as a percentage of total trials from an appropriate number of trials and a 50% block in avoidance responding (AB50) is obtained from a dose-effect regression line. All the data is based upon (mg/kg) dosing of the animals.

T1 sequence (P61169 whole entry): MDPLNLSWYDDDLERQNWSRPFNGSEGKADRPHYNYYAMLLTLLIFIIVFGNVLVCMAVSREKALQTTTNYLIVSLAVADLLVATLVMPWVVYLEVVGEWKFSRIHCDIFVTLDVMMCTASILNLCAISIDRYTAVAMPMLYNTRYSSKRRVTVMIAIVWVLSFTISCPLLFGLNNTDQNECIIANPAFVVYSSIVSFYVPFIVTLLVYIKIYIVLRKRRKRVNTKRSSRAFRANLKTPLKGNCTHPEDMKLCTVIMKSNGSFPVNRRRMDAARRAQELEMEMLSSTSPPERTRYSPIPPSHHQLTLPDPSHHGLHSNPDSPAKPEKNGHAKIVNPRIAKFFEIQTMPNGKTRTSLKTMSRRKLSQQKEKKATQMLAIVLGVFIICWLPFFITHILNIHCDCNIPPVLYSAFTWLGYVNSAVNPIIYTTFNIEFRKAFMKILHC

Structure (SMILES) | Ki ([1]; bound) [µM] | percent, limbic D-2 binding ([1]; concentration not given) [%] | ED50 [2] [mg/kg]
C[C@@H]1CN(CCCN2CCc3c([nH]c4ccccc34)C2)C[C@@H](C)N1 (relative stereo) [Example 3, 2-[3-(trans-3,5-Dimethyl-1-piperazinyl)propyl]-2,3,4,9-tetrahydro-1H-pyrido[3,4-b]indole] | > 5 | 38 | –
c1cnc(N2CCN(CCCN3CCc4c([nH]c5ccccc45)C3)CC2)nc1 [Example 1, 2,3,4,9-Tetrahydro-2-[3-[4-(2-pyrimidinyl)-1-piperazinyl]propyl]-1H-pyrido[3,4-b]indole] | – | – | 34.7
